Read-outs that look alike come from different tables or passages of the source.
Tests used:
[1] = tested on: Wild type (WT) mice; settings: WT mice receiving rasagiline, group mean, n = 18
Text: In this experiment, lemon odor served as a familiar odor (F), and lime—as a novel odor (N) (FIG. 4A). Mice capable of discriminating between the odors will spend more time sniffing the new odor. The testing parameter was percentage of time of sniffing novel odor out of total time of sniffing.

[2] = tested on: alpha-synuclein over-expressing (mutants) mice (Thy1-aSyn); settings: α-syn mutants receiving rasagiline; group mean, n = 19
Text: (§1) Transgenic mice overexpressing alpha-synuclein under the Thy1 promoter (Thy1-aSyn) have high levels of alpha-synuclein expression throughout the brain but no loss of nigrostriatal dopamine neurons up to 8 months. […] Overexpression of alpha-synuclein is sufficient to cause olfactory deficits in mice similar to that observed in patients with PD (2).
(§2) The time periods that mice spent sniffing lemon and lime were compared. The testing parameters were percentage of time of sniffing lemon out of total time of sniffing and percentage of time of sniffing lime out of total time of sniffing.

[3] = tested on: alpha-synuclein over-expressing (mutants) mice (Thy1-aSyn)
Text: Transgenic mice overexpressing alpha-synuclein under the Thy1 promoter (Thy1-aSyn) have high levels of alpha-synuclein expression throughout the brain but no loss of nigrostriatal dopamine neurons up to 8 months. […] Overexpression of alpha-synuclein is sufficient to cause olfactory deficits in mice similar to that observed in patients with PD (2). […] The objective was to determine whether the odor discrimination deficit was specific to the olfactory function (FIG. 7A). The testing parameters was percentage of time exploring the novel object/odor out of total time of exploration.

[4] = tested on: alpha-synuclein over-expressing (mutants) mice (Thy1-aSyn); settings: α-syn mutants; in particular at the 1.5 min interval
Text: as §1
(§3) The underlying principle was that if mice would spend less time sniffing the odor at T2 (second exposure to the odor) their short term olfactory memory is intact. The testing parameter was percentage of time of sniffing at T2, calculated as time of sniffing at T2 out of total time of sniffing at T1 (first exposure) & T2.

[5] = tested on: alpha-synuclein over-expressing (mutants) mice (Thy1-aSyn); remark: listed apart in the source
Text: Transgenic mice overexpressing alpha-synuclein under the Thy1 promoter (Thy1-aSyn) have high levels of alpha-synuclein expression throughout the brain but no loss of nigrostriatal dopamine neurons up to 8 months. […] Overexpression of alpha-synuclein is sufficient to cause olfactory deficits in mice similar to that observed in patients with PD (2). […] In this experiment, lemon odor served as a familiar odor (F), and lime—as a novel odor (N) (FIG. 4A). Mice capable of discriminating between the odors will spend more time sniffing the new odor. The testing parameter was percentage of time of sniffing novel odor out of total time of sniffing.

[6] = tested on: Wild type (WT) mice; settings: WT mice receiving rasagiline; group mean, n = 9
Text: The objective was to determine whether the odor discrimination deficit was specific to the olfactory function (FIG. 7A).
The testing parameters was percentage of time exploring the novel object/odor out of total time of exploration.

[7] = tested on: Wild type (WT) mice; settings: for Time of exploration: novel object; for Time of exploration / % Time exploring novel object: WT mice receiving rasagiline, individual mice, Mean row = group mean (n = 9); for % Time exploring novel object: out of total time of the trial
Text: (§4) The testing parameters were percentage of time exploring the novel object out of total time of the trial.

[8] = tested on: alpha-synuclein over-expressing (mutants) mice (Thy1-aSyn); remark: listed apart in the source
Text: as §1
(§5) The experiment was further subdivided into two levels of odor intensity:
(§6) Light intensity: two days of odor impregnation
(§7) Strong intensity: seven days of odor impregnation
(§8) The testing parameter was percentage of time of sniffing novel odor out of total time of sniffing.

[9] = tested on: Wild type (WT) mice
Text: as §3

[10] = tested on: alpha-synuclein over-expressing (mutants) mice (Thy1-aSyn); remark: listed apart in the source
Text: as §1
Odor detection threshold is the lowest concentration (dilution 10^−8; 10^−6; 10^−4 in the water) at which mice are able to detect a novel odor. Upon detection of a novel odor, mice will spend more time sniffing it. The detection threshold was measured as percentage of time sniffing novel odor out of total time of sniffing.

[11] = tested on: Wild type (WT) mice; settings: strong intensity
Text: as §5, §6, §7, §8

[12] = tested on: alpha-synuclein over-expressing (mutants) mice (Thy1-aSyn); remark: listed apart in the source
Text: as §1, §4

[13] = tested on: Wild type (WT) mice; settings: WT mice receiving rasagiline; group mean, n = 18
Text: as §2

[14] = tested on: transgenic mouse models for the study of olfactory loss
Text: (Lane et al., “Development of transgenic mouse models for the study of human olfactory dysfunction”, Am J. Rhinol., 2005, May-June; 19(3):229-35.)

[15] = non-social odors, N = lime (novel)
[16] = α-syn mutants receiving rasagiline, group mean, n = 9
[17] = non-social odors, N = lime (novel), α-syn mutants receiving rasagiline, group mean, n = 20
[18] = strong social odors, α-syn mutants receiving rasagiline, group mean, n = 20

Which results are given for `C#CCN[C@@H]1CCc2ccccc21` [Rasagiline, R(+)-N-propargyl-1-aminoindan]?
Total time sniffing ([1]; non-social odors lemon/lime): 42.5; Time Sniffing F ([1]; non-social odors, F = lemon (familiar)): 11.9; % time sniffing N [1, 15]: 72.1%; Time Sniffing N [1, 15]: 30.6; % Time sniffing Lime [2]: 52.6%; Time of sniffing (s) Lemon [2]: 6.1 s; Time of sniffing (s) Lime [2]: 8.7 s; Time of sniffing (s) Total [2]: 14.9 s; novel object/odor discrimination ability ([3]; α-syn mutants): improves the discrimination ability of the mutants to substantially WT levels; % Time exploring novel object [3, 16]: 92.2%; Time of Exploration (s) Familiar object [3, 16]: 3.6 s; Time of Exploration (s) Novel object [3, 16]: 48.7 s; Time of Exploration (s) Total [3, 16]: 52.4 s; effect on short term olfactory memory [4]: positive effect on short term olfactory memory; Total time sniffing ([5]; non-social odors lemon/lime, α-syn mutants receiving rasagiline, group mean, n = 20): 14.8; Time Sniffing F ([5]; non-social odors, F = lemon (familiar), α-syn mutants receiving rasagiline, group mean, n = 20): 3.7; % time sniffing N [5, 17]: 70.2%; Time Sniffing N [5, 17]: 11.2; discrimination of two close non-social odors ([5]; α-syn mutant mice, lemon (familiar) vs lime (novel)): improves discrimination of two close non-social odors; % Time exploring novel object [6]: 96.2%; Time of Exploration (s) Familiar object [6]: 3.0 s; Time of Exploration (s) Novel object [6]: 85.0 s; Time of Exploration (s) Total [6]: 88.0 s; effect on novel object exploration ([7]; WT mice): no effect on novel object exploration; Time of exploration ([7]; listed as Rasagilina): 100.0 s; Time of exploration ([7]; listed as Rasagilins): 115.1 s; % Time exploring novel object ([7]; listed as Rasagilina): 33.3%; % Time exploring novel object ([7]; listed as Rasagilins): 38.4%; Time Sniffing F [8, 18]: 3.1; Total time sniffing [8, 18]: 12.4; discrimination of light social odor ([8]; α-syn mutants, light intensity): improves discrimination of light social odor; discrimination of strong social odor ([8]; α-syn mutants, strong intensity): improves discrimination of strong social odor; short-term olfactory memory compared to WT-water ([9]; ITI of 2 min): reduced short-term olfactory memory compared to WT-water; effect on short term olfactory memory ([9]; in particular at the 1.5 min interval): positive effect on short term olfactory memory; odor threshold (lowest odor dilution detected) ([10]; α-syn mutants with rasagiline, untreated mutants 10^−4, dilution in water): 10^6; odor detection ability ([10]; α-syn mutants, odor concentration 10^−6): improved the odor detection ability of α-syn mutants; discrimination of strong social odor [11]: improves discrimination of strong social odor; Time of exploration ([12]; novel object, α-syn mutants receiving rasagiline, group mean, n = 11): 79.3 s; % Time exploring novel object ([12]; out of total time of the trial, α-syn mutants receiving rasagiline, group mean, n = 11): 26.4%; effect on novel object exploration ([12]; α-syn mutants): no effect on novel object exploration; % Time sniffing Lemon [13]: 52.9%; % Time sniffing Lime [13]: 47.1%; Time of sniffing (s) Lemon [13]: 25.9 s; Time of sniffing (s) Lime [13]: 23.3 s; Time of sniffing (s) Total [13]: 49.2 s; treating the symptoms of olfactory dysfunction ([14]; each of two transgenic mouse models): effective in treating the symptoms of olfactory dysfunction; functional decline ([14]; transgenic mouse models): effective in reducing the functional decline; rate of progression of olfactory dysfunction ([14]; transgenic mouse models): effective in reducing the rate of progression of olfactory dysfunction
